{"source": "patent US7973027B2", "about": "“Compound with antimalarial activity and antimalarial drug containing the same as active ingredient” (Nagoya City University, priority 2006, dated 2011)", "key": {"[1]": {"test_system": "Mouse mammary tumor FM3A cells", "experiment": "Evaluation of cytotoxicity", "format": "cell-based", "details": "37° C., 48 hours, values in FIG. 8 only, stated in words", "protocol": "(2) Evaluation Method of Cytotoxicity (See Hye-Sook Kim; Yasuharu Shibata; Yusuke Wataya; Kaoru Tsuchida; Araki Masuyama; Masatomo Nojima. J. Med. Chem. 1999, 42, 2604-2609)\nThe concentration of […] (Mouse mammary tumor FM3A cells) is adjusted to 5×10^4 cells/ml, and 5 μl of DMSO solutions of antimalarial drug candidate compounds prepared at various concentrations is added. The cells area cultured at 37° C. for 48 hours and then, the number of surviving cells is counted by the use of microcell counter CC-130 (To a Medical Electric Co.). The measurement results are compared with the results obtained from the control experiment so as to calculate EC50 value."}, "[2]": {"test_system": "Plasmodium falciparum (ATCC 30932, FCR-3 strain)", "experiment": "Evaluation of antimalarial activity (infected human erythrocytes, Giemsa staining)", "format": "cell-based", "details": "37° C., 72 hours, values in FIG. 8 only, stated in words", "protocol": "Human erythrocyte infected with malaria parasite (Plasmodium falciparum (ATCC 30932, FCR-3 strain)) is prepared on a 24-well culture plate and 5 μl each of DMSO solutions of antimalarial drug candidate compounds prepared at various concentrations is added. Thereafter, the erythrocyte is cultured at 37° C. for 72 hours. A part of the cultured erythrocyte is subjected to Giemsa staining. Then, the number of cells infected with malaria is counted under microscope. EC50 values are calculated based on the measurement values."}}, "data": [{"smiles": "CN(CCNC(=O)C=Cc1c[nH]cn1)CCNc1ccnc2cc(Cl)ccc12", "note": "[uro-2Q, N-(2-{[2-(7-Chloro-quinolin-4-ylamino)ethyl]methylamino}ethyl)-3-(1H-imidazol-4-yl)acrylamide]", "values": [{"measurement": "cytotoxicity (EC50)", "setting": "[1]", "result": "lower toxicity as compared with existing drugs"}, {"measurement": "antimalarial activity (EC50)", "setting": "[2]", "result": "higher antimalarial activity"}]}]}
